Assay results: the supplement of paper PMC13380429
± gives the standard deviation of the averaged measurements.

Legend:
Settings in all cases: 72 h
Caco-2 [1] = experiment: cell viability relative to DMSO; higher = less toxic
Calu-3 [2] = experiment: as above
HepG2 [3] = experiment: as above
U2OS [4] = experiment: as above
Vero E6 [5] = experiment: as above
Caco-2 [6] = experiment: relative viability EC50 (midpoint between 100% and the lowest measured viability); higher = less toxic
Calu-3 [7] = experiment: as above
HepG2 [8] = experiment: as above
U2OS [9] = experiment: as above
Vero E6 [10] = experiment: as above
Caco-2 [11] = experiment: drug sensitivity score (DSS) for viability; higher = more toxic; extreme values may be limits of the assay
Calu-3 [12] = experiment: as above
HepG2 [13] = experiment: as above
U2OS [14] = experiment: as above
Vero E6 [15] = experiment: as above

Structure (SMILES)	cell viability (Caco-2 [1]; 1 nM)	cell viability (Caco-2 [1]; 10 nM)	cell viability (Caco-2 [1]; 100 nM)	cell viability (Caco-2 [1]; 1000 nM)	cell viability (Caco-2 [1]; 10000 nM)	cell viability (Calu-3 [2]; 1 nM)	cell viability (Calu-3 [2]; 10 nM)	cell viability (Calu-3 [2]; 100 nM)	cell viability (Calu-3 [2]; 1000 nM)	cell viability (Calu-3 [2]; 10000 nM)	cell viability (HepG2 [3]; 1 nM)	cell viability (HepG2 [3]; 10 nM)	cell viability (HepG2 [3]; 100 nM)	cell viability (HepG2 [3]; 1000 nM)	cell viability (HepG2 [3]; 10000 nM)	cell viability (U2OS [4]; 1 nM)	cell viability (U2OS [4]; 10 nM)	cell viability (U2OS [4]; 100 nM)	cell viability (U2OS [4]; 1000 nM)	cell viability (U2OS [4]; 10000 nM)	cell viability (Vero E6 [5]; 1 nM)	cell viability (Vero E6 [5]; 10 nM)	cell viability (Vero E6 [5]; 100 nM)	cell viability (Vero E6 [5]; 1000 nM)	cell viability (Vero E6 [5]; 10000 nM)	relative viability EC50 (Caco-2 [6])	relative viability EC50 (Calu-3 [7])	relative viability EC50 (HepG2 [8])	relative viability EC50 (U2OS [9])	relative viability EC50 (Vero E6 [10])	drug sensitivity score (Caco-2 [11])	drug sensitivity score (Calu-3 [12])	drug sensitivity score (HepG2 [13])	drug sensitivity score (U2OS [14])	drug sensitivity score (Vero E6 [15])
Cc1cccc(CN2CCN(C(c3ccccc3)c3ccc(Cl)cc3)CC2)c1 (centres undefined) [meclizine]	91.9%	101%	97.1%	99.5%	85.8%	92.7%	88.4%	95.7%	94.1%	87.6%	102%	108%	106%	92.3%	90%	96.5%	98.6%	93.6%	101%	91.6%	107%	105%	103%	102%	97.7%	> 10 µM	> 10 µM	> 10 µM	> 10 µM	> 10 µM	0.2	0	0	0	0
NC(=O)NC(=O)Cc1ccccc1 [phenacemide]	102%	94.4%	95.6%	100%	94.8%	102%	97.2%	101%	87.7%	104%	96.4%	103%	95.5%	107%	102%	104%	102%	102%	98.8%	97.6%	97.5%	101%	96.8%	99.7%	96.9%	> 10 µM	> 10 µM	> 10 µM	> 10 µM	> 10 µM	0	0	0	0	0
O=C(O)c1ccccc1Nc1cccc(C(F)(F)F)c1 [flufenamic-acid]	93.5%	96.3%	85.4%	101%	96.2%	101%	108%	95.9%	112%	92.2%	93.7%	103%	101%	102%	101%	98.5%	98.1%	95.5%	97.5%	100%	104%	94.2%	100%	96%	95.8%	> 10 µM	> 10 µM	> 10 µM	> 10 µM	> 10 µM	0	0	0	0	0
O=C[C@H](O)[C@@H](O)[C@H](O)CO [xylose]	94%	94.3%	94.2%	90.4%	92.7%	104%	93%	98.4%	97.9%	85.4%	106%	101%	101%	98%	96.8%	95.1%	95.3%	94.5%	96.4%	96.3%	96.7%	96.1%	99.4%	94.3%	92.6%	> 10 µM	> 10 µM	> 10 µM	> 10 µM	> 10 µM	0	0.3	0	0	0
COc1ccc(-c2cc(=O)c3c(O)c(OC)c(O)cc3o2)cc1OC [eupatilin]	98.3%	94.8%	94.7%	96.9%	92.9%	92.2%	101%	92.6%	93.9%	78.5%	94.2%	99%	85.9%	99.5%	90.1%	105%	97.3%	102%	99.7%	101%	99.6%	102%	97.2%	97.3%	97.8%	> 10 µM	> 10 µM	> 10 µM	> 10 µM	> 10 µM	0	0.9	0	0	0
CN(C)CCCNC(=O)c1ccc(-c2cc(O)c3ncccc3c2)cc1 [ML324]	107%	94.3%	107%	91.7%	80.6%	105%	93.8%	106%	94.1%	83.4%	88.7%	103%	88.2%	104%	35.7%	105%	98.9%	107%	98.5%	85%	98.5%	100%	96.2%	101%	58.1%	> 10 µM	> 10 µM	3.52 µM	> 10 µM	–	1.4	0.9	3.2	0.4	2
CCOC(=O)c1ncn2c1CN(C)C(=O)c1cc(F)ccc1-2 [flumazenil]	95.2%	99.6%	99.1%	102%	105%	89.2%	87.6%	87.1%	90.8%	87%	97.8%	95%	97.8%	90.7%	95.6%	99.2%	103%	97.3%	103%	97.8%	102%	97.2%	100%	95.4%	98.8%	> 10 µM	> 10 µM	> 10 µM	> 10 µM	> 10 µM	0	0	0	0	0
Cc1cc(OCc2nc(-c3ccccc3Cl)cs2)ccc1OCC(=O)O [GPR120-modulator-1]	102%	97.5%	103%	98.5%	92.8%	96.4%	99.8%	99.6%	110%	86.9%	104%	93.4%	101%	101%	92.8%	92.3%	96.8%	92.2%	102%	94.3%	101%	102%	102%	97.9%	97.1%	> 10 µM	> 10 µM	> 10 µM	> 10 µM	> 10 µM	0	0	0	0	0
Cc1oc(-c2ccccc2)nc1CCOc1ccc(CC2SC(=O)NC2=O)c2sccc12 (centres undefined) [edaglitazone]	104%	98.6%	90.4%	96.1%	87.2%	106%	102%	114%	97.5%	102%	102%	107%	93.6%	100%	88.8%	99.4%	93%	99.2%	97.4%	96.9%	103%	102%	89.4%	83.7%	86.7%	> 10 µM	> 10 µM	> 10 µM	> 10 µM	> 10 µM	0.1	0	0	0	2.6
Cc1ccc(/C=C2/C(=O)C3(C)CCC2C3(C)C)cc1 (centres undefined) [3-(4-methylbenzylidene)camphor]	92.9%	100%	90%	95.8%	95.9%	102%	97.2%	88.1%	92.1%	93.8%	94.1%	96%	94.3%	88.9%	103%	101%	104%	96.4%	99.1%	100%	101%	101%	96.9%	99.9%	96.3%	> 10 µM	> 10 µM	> 10 µM	> 10 µM	> 10 µM	0	1.2	0	0	0
CC1(C)Oc2ccc(C#N)cc2[C@H](N(Cc2ncc[nH]2)c2ccc(Cl)cc2)[C@H]1O	106%	101%	98%	103%	89.4%	103%	104%	105%	102%	99.2%	107%	109%	98%	103%	114%	101%	103%	103%	103%	96.8%	93.8%	93%	95.2%	97.2%	102%	> 10 µM	> 10 µM	> 10 µM	> 10 µM	> 10 µM	0	0	0	0	0
Nc1ccn([C@@H]2O[C@@](CO)(CCl)[C@@H](O)[C@H]2F)c(=O)n1 [ALS-8112]	95.2%	96.4%	96.1%	93.9%	98.9%	104%	102%	93.8%	100%	90.9%	90.2%	94.3%	104%	96.1%	82.8%	102%	99.2%	102%	96.8%	97.4%	100%	97.7%	97%	98.8%	94.8%	> 10 µM	> 10 µM	> 10 µM	> 10 µM	> 10 µM	0	0	0.8	0	0
O=c1[nH]c2ccccc2n1CCCN1CCC(n2c(=O)[nH]c3cc(Cl)ccc32)CC1 [domperidone]	100%	96.1%	96.7%	92.1%	94.3%	102%	94.6%	105%	106%	101%	94.6%	96.4%	92.3%	104%	95.7%	103%	90.7%	97.6%	95.6%	94.2%	90%	93.8%	95.8%	96.6%	89%	> 10 µM	> 10 µM	> 10 µM	> 10 µM	> 10 µM	0	0	0	0	0
CC(C)Cc1ccc(C(C)C(=O)O)cc1 (centres undefined) [ibuprofen]	97.4 ± 5.4%	98.1 ± 3.7%	95.9 ± 2%	103 ± 4.1%	104 ± 3.2%	105 ± 5.7%	98.9 ± 6.4%	93 ± 1.3%	94.6 ± 8.3%	102 ± 7.8%	110 ± 5.8%	96.3 ± 1.8%	104 ± 8.1%	102 ± 5.4%	108 ± 9.9%	99.7 ± 3.4%	103 ± 4.4%	100.6 ± 0.96%	102 ± 2.5%	105 ± 2.5%	96.9 ± 0.57%	96.9 ± 2.5%	94.95 ± 0.071%	92.2 ± 2.9%	104.25 ± 0.071%	> 10 µM	> 10 µM	> 10 µM	> 10 µM	> 10 µM	0	0	0	0	0
